Patent US6002009A, “Di-substituted 1,4-piperidine esters and amides having 5-HT4 antagonistic activity” (Boehringer Ingelheim Italia, S.p.A., priority 1995, dated 1999)

Target: 5-HT4 receptor (Sus scrofa, UniProt Q6Q253)
Experiment: 5-HT4 receptor binding (competition against [^3 H]-GR 113808, pig striatum)
Conditions: 0.1 nM [^3 H]-GR 113808, 30 min at 37° C., read-out: Ki (affinity for the 5-HT4 receptor)
Procedure: The affinity of the compounds of formula (I) for 5-HT4 serotoninergic receptors was tested "in vitro" by receptor binding studies in the pig striatum, a tissue particularly rich in 5-HT4 receptors.
Receptor binding studies on 5-HT4 receptor were carried out to determine the affinity of the test compounds.
Pig striatum was removed, cleaned and homogenized (w/v 1:70) with an Ultra-Turrax at maximal speed for 30 s, followed by use of a Potter-Elvehjem homogenizer (30 strokes) in 50 mM Hepes buffer, pH 7.4 and filtered through two layers of cheese-cloth.
Binding curves for the different compounds were derived indirectly from competition experiments against 0.1 nM [^3 H]-GR 113808.
A 1 ml aliquot of homogenate was incubated for 30 min at 37° C. in the presence of the marker ligand and different concentrations of the cold ligands.
The incubation was stopped by rapid filtration using an automatic apparatus (1H -110 Inotech). The filters (Inotech glass fibre filter, type G7) were then transferred to scintillation vials containing 4 ml of Filter Count (Packard) and the radioactivity present was counted by liquid scintillation spectrometry (Kontron Betamat V). Assays were carried out in triplicated and non specific binding was defined as the radioactivity bound or entrapped in the filter when the incubation medium contained 10 μM of BIMU 0001 (3-ethyl-2,3-dihydro-2-oxo-benzimidazole-1(3a-tropyl carboxamide). Non specific binding was about 10-15%. The inhibition constant (Ki) was calculated after correction for the radioligand occupancy shift according to the equation of Cheng and Prusoff (Biochem. Pharmacol. 22, 3099, 1973).

Chain of 5-HT4 receptor (Q6Q253 1-402): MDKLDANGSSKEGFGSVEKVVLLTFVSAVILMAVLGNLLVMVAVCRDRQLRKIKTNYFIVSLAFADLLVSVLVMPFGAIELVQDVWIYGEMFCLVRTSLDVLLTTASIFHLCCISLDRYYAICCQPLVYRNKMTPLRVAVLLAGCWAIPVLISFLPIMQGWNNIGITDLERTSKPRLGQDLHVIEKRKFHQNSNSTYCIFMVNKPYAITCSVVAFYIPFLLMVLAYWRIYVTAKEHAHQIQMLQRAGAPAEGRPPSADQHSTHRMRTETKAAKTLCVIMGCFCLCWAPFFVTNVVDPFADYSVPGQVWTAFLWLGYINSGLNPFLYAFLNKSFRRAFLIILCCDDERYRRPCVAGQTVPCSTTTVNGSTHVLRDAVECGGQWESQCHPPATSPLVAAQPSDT

Ki	Compound
1.6 nM	CCn1c(=O)n(C(=O)NCC2CCN(C[C@H](CO)NC(=O)Nc3ccccc3)CC2)c2ccccc21 [Compound 35, R(+)-3-Ethyl-2-oxo-2,3-dihydro-benzimidazol-1-carboxamide-{1-[2-(3-phenyl-ureido)-3-hydroxy-propyl]-piperidin-4-yl-methyl}]
2.9 nM	O=C(Nc1ccccc1)N[C@@H](CO)CN1CCC(COC(=O)c2c[nH]c3ccc(F)cc23)CC1 [Compound 16, R(+)-5-Fluoro-1H-indol-3-carboxylic acid {1-[2-(3-phenyl-ureido)-3-hydroxy-propyl]-piperidin-4-yl} methyl ester]
4.6 nM	CCNC(=O)N[C@@H](Cc1c[nH]c2ccccc12)CN1CCC(COC(=O)c2cc(Cl)c(N)cc2OC)CC1 [Compound 1, S(+)-4-Amino-5-chloro-2-methoxy-benzoic acid {1-[2-(3-ethyl-ureido)-3-(1H-indol-3-yl)propyl]piperidin-4-yl} methyl, ester]
1.3 nM	C[C@@H](CN1CCC(COC(=O)n2c(=O)[nH]c3ccccc32)CC1)NC(=O)OCc1ccccc1 [Compound 21, S(+)-2-Oxo-2,3-dihydro-benzimidazol-1-carboxylic acid [1-(2-benzyloxycarbonyl-amino)-propyl-piperidin-4-yl]-methyl ester]
2.8 nM	CCOC(=O)N[C@@H](CO)CN1CCC(COC(=O)n2c3ccccc3c3ccccc32)CC1 [Compound 12, R(+)-Carbazole-9-carboxylic acid [1(2-ethoxycarbonyl-amino-3-hydroxy-propyl)-piperidin-4-yl]methyl ester]
2.1 nM	COc1cc(N)c(Cl)cc1C(=O)OCC1CCN(C[C@H](Cc2c[nH]c3ccccc23)NC(=O)OCc2ccccc2)CC1 [Compound 10, S(+)-4-Amino-5-chloro-2-methoxybenzoic acid {1-[2-benzyloxycarbonyl-amino-3-(1H-indol-3-yl)-propyl]piperidin-4-yl} methyl ester]
0.16 nM	COc1[nH]c2ccc(F)cc2c1C(=O)OCC1CCN(C[C@H](CO)NC(=O)OCc2ccccc2)CC1 [Compound 17, R(+)-5-Fluoro-2-methoxy-1H-indol-3-carboxylic acid [1-(2-benzyloxycarbonyl-amino-3-hydroxy-propyl)-piperidin-4-yl]methyl ester]
1.1 nM	COc1cc(N)c(Cl)cc1C(=O)OCC1CCN(C[C@H](Cc2ccccc2)NC(=O)OCc2ccccc2)CC1 [Compound 11, S(+)-4-Amino-5-chloro-2-methoxybenzoic acid [1-(2-benzyloxycarbonyl-amino-3-phenyl-propyl)-piperidin-4-yl]methyl ester]
1 nM	CCn1c(=O)n(C(=O)NCC2CCN(C[C@H](CCSC)NC(=O)Nc3ccccc3)CC2)c2ccccc21 [Compound 26, S(-)-3-Ethyl-2-oxo-2,3-dihydro-benzimidazol-1-carboxamide-{1-[2-(3-phenyl-ureido)-4-methylthio-butyl]-piperidin-4-yl-methyl}]
3.2 nM	CCOC(=O)N[C@@H](CCSC)CN1CCC(CNC(=O)n2c(=O)n(CC)c3ccccc32)CC1 [Compound 34, S(+)-3-Ethyl-2-oxo-2,3-dihydro-benzimidazol-1-carboxamide-[1-(2-ethoxycarbonylamino-4-methylthio-butyl)-piperidin-4-yl-methl]]
4.3 nM	CCNC(=O)N[C@@H](CO)CN1CCC(COC(=O)n2c3ccccc3c3ccccc32)CC1 [Compound 13, R(+)-Carbazole-9-carboxylic acid {1-[2-(3-ethyl-ureido)-3-hydroxy-propyl]-piperidin-4-yl} methyl ester]
0.37 nM	CCn1c(=O)n(C(=O)NCC2CCN(C[C@H](CO)NC(=O)OCc3ccccc3)CC2)c2ccccc21 [Compound 37, R(+)-3-Ethyl-2-oxo-2,3-dihydro-benzimidazol-1-carboxamide-[1-(2-benzyloxycarbonylamino-3-hydroxy-propyl)-piperidin-4-yl-methyl]]
4.3 nM	CCn1c(=O)n(C(=O)NCC2CCN(C[C@H](CC(N)=O)NC(=O)Nc3ccccc3)CC2)c2ccccc21 [Compound 30, S(+)-3-Ethyl-2-oxo-2,3-dihydro-benzimidazol-1-carboxamide-{1-[2-(3-phenyl-ureido)-3-carbamoyl-propyl]-piperidin-4-yl-methyl}]
4.3 nM	CCOC(=O)N[C@@H](CCSC)CN1CCC(COC(=O)c2cc(Cl)c(N)cc2OC)CC1 [Compound 9, S(+)-4-Amino-5-chloro-2-methoxy-benzoic acid [1-(2-ethoxycarbonyl-amino-4-methylthio-butyl)-piperidin-4-yl]methyl ester]
0.25 nM	CCOC(=O)N[C@@H](CO)CN1CCC(COC(=O)c2c(OC)[nH]c3ccc(F)cc23)CC1 [Compound 19, R(+)-5-Fluoro-2-methoxy-1H-indol-3-carboxylic acid [1-(2-ethoxycarbonyl-amino-3-hydroxy-propyl)piperidin-4-yl]methyl ester]
3 nM	CCNC(=O)N[C@@H](CO)CN1CCC(CNC(=O)n2c(=O)n(CC)c3ccccc32)CC1 [Compound 36]
0.86 nM	CCn1c(=O)n(C(=O)OCC2CCN(C[C@H](C)NC(=O)OCc3ccccc3)CC2)c2ccccc21 [Compound 23, S(+)-3-Ethyl-2-oxo-2,3-dihydro-benzimidazol-1-carboxylic acid [1-(2-benzyloxycarbonyl-amino)-propyl-piperidin-4-yl]-methyl ester]
